Results reported in patent publication US9629830B2, “EphA4 inhibitors as neuroprotective agents” (The Hong Kong University of Science and Technology, priority 2013, dated 2017).

Columns and labels:
[1] = test system: Aβ-induced reduction of neurotransmission in hippocampal neurons; assay: mEPSC recording in Aβ-treated cultured hippocampal neurons; format: cell-based, rat
Experimental: Primary cortical and hippocampal neurons were prepared from embryonic day 18-19 rat embryos as described previously^24. Briefly, cortical neurons (6×10^6 per plate) were plated on 100-mm culture dishes coated with poly-D-lysine (12.5 μg/mL; Sigma). Rat hippocampal neurons were seeded on 18-mm coverslips coated with poly-D-lysine (50 μg/mL) at a density of 0.5×10^5/18-mm coverslip for immunocytochemical analysis, 0.1×10^5/18-mm coverslip for growth cone collapse assay, or 1×10^5 or 1.5×10^5/18-mm coverslip for mEPSC recording. Neurons were fed Neurobasal medium (Invitrogen) supplemented with 2% B27 (Invitrogen). Acute brain slices were prepared from P15-P17 Sprague-Dawley rats. Briefly, the rats were rapidly decapitated, and their brains were immersed in ice-cold artificial cerebrospinal fluid (ACSF). The hippocampus was dissected, and 300-μm-thick slices were prepared using a vibratome (Lieca). The slices were then transferred into an incubating chamber containing circulating ACSF equilibrated with 95% O2+5% CO2 and held at room temperature for at least 2 h for recovery prior to experiments^65.
For miniature EPSC recordings, hippocampal neurons at ˜25-28 DIV were co-treated with or without 500 nM Aβ together with the testing reagents for 24 h. Whole-cell patch-clamp recordings were made at room temperature with external solution containing (in mM) 110 NaCl, 5 KCl, 2 CaCl2, 0.8 MgCl2, 10 HEPES, and 10 D-glucose (pH 7.4) as well as an internal solution containing (in mM) 135 CsCl2, 10 HEPES, 2 MgCl2, 4 NaATP, 0.4 NaGTP, and 0.5 EGTA (pH 7.2)^24,27. Picrotoxin ([…]) was included in the external solution to block GABAergic IPSCs along with 0.5 μM TTX to prevent action potential-evoked EPSCs. For miniature EPSC recordings, cells were held at −70 mV. The pipette resistances for these experiments were typically 3-5 MΩ, while series resistances were 15-20 MΩ. The minis from each cell was recorded for 1 min in each condition. The measurement of mEPSC was according to that described in Mini Analysis Program for measuring AMPA receptor EPSCs (Synaptosoft Inc.). Only recording epochs in which series and input resistances varied <10% were analyzed. Data are presented as the mean±SEM of at least 3 experiments.

[2] = test system: Aβ-induced impairment of hippocampal LTP; assay: HFS-induced LTP (fEPSP slope) in acute hippocampal slices treated with Aβ; format: cell-based, mouse
Experimental: Oligomeric Aβ (Aβ) was prepared as described previously^59,60. Briefly, 0.5 mg monomeric Aβ1-42 was dissolved in 22.2 μL dry DMSO and then diluted in ice-cold phenol-red free F-12 medium to yield a final Aβ concentration of 100 μM. The Aβ solution was incubated at 4° C. for 24 h and then centrifuged at 14,000×g for 10 min. The supernatant was frozen in liquid nitrogen and stored at −20° C. for up to 1 month. Unless specified, cultured neurons or hippocampal slices were typically treated with Aβ at 500 nM.
For LTP recordings, mouse brains were immediately dissected after sacrifice and soaked in ice-cold 95% O2/5% CO2 (aCSF)^58. Brain slices (300 μm thick) were prepared using a vibrating tissue slicer (HM650V; Thermo), and soaked in oxygenated buffer for 2 h at 32° C. The hippocampal regions were resected and placed at the center of a MED-P210A probe (Panasonic International Inc) with 64 embedded recording electrodes. The slices were then perfused with Aβ at 500 nM in oxygenated aCSF for 2 h before LTP induction^70. For treatment with EphA4 inhibitors, the slices were pretreated with peptides or chemicals for 1 h before application of Aβ. fEPSPs were recorded using a MED64 multichannel recording system, and the data were collected from the dendritic layer of area CA1 at a sampling rate of 10 kHz. For each slice, the baseline stimulus intensity was set at the level that elicited ˜50% of the maximum fEPSP response determined according to the input-output curve. LTP was induced by 3 trains of HFS (100 Hz, 1 s, delivered 30 s apart). The magnitude of LTP was quantified as a percentage change in the fEPSP slope (10%-90%) taken during the 60-min interval after LTP induction.

Tg2576 mutant mice = assay: HFS-induced hippocampal LTP in WT and Tg2576 mice after oral treatment; format: in vivo, mouse
Excerpt: APP/PS1 double-transgenic mice were obtained from Jackson Laboratory (B6C3-Tg[APPswe, PSEN1dE9]85Dbo/J)^66. These mice were generated by incorporating a human/murine APP construct bearing the Swedish double mutation and the exon-9-deleted PSEN1 mutation (APPswe+PSEN1/dE9). APP transgenic mice (Tg2576) expressing a double mutant of human AβPP (Lys^670→Asn^670, Met^671→Leu^671) were also used^31. Both sexes were used for experiments, and all mice used in this study were produced by the Animal Care Facility of The Hong Kong University of Science and Technology. The genotype was confirmed by polymerase chain reaction analysis of tail biopsies. Four to five mice of the same sex were housed in a cage with food and water ad libitum with a 12-hour light/dark cycle.
To investigate the effect of blocking EphA4 signaling by KYL peptide in AD mice, 4-5-month-old AD transgenic mice were implanted with Alzet mini-osmotic pumps, model 1004, pumping its contents at 0.11 μL/h for 28 days. Pumps were loaded with either 0.23 μg/μL KYL peptide (17 μg) or vehicle solvent in artificial cerebrospinal fluid (CSF). The mini-osmotic pumps were adjusted intracerebroventricularly in the right hemisphere. […]
For LTP recordings, mouse brains were immediately dissected after sacrifice and soaked in ice-cold 95% O2/5% CO2 (aCSF)^58. […] For treatment with EphA4 inhibitors, the slices were pretreated with peptides or chemicals for 1 h before application of Aβ. fEPSPs were recorded using a MED64 multichannel recording system, and the data were collected from the dendritic layer of area CA1 at a sampling rate of 10 kHz. For each slice, the baseline stimulus intensity was set at the level that elicited ˜50% of the maximum fEPSP response determined according to the input-output curve. […] The magnitude of LTP was quantified as a percentage change in the fEPSP slope (10%-90%) taken during the 60-min interval after LTP induction.

APP/PS1 mice = assay: Adult neurogenesis (Ki67 staining) in hippocampus of APP/PS1 mice; format: in vivo, mouse; conditions: Rhy oral 50 mg/kg for over three months, versus control-treated mice
Excerpt: The mouse brains were sectioned and stained with Ki67 antibody, which labelled all cells in the cell cycle, but not those differentiated progenitors and newly born neurons.

NMDA receptors = assay: NMDA current in hippocampal neurons; format: cell-based; conditions: data not shown
NMDA receptor = conditions: subsequent study; cited from earlier work

## CC[C@H]1CN2CC[C@]3(C(=O)Nc4ccccc43)[C@@H]2C[C@@H]1/C(=C\OC)C(=O)OC [Rhy, methyl (7β,16E,20α)-16-(methoxymethylene)-2-oxocorynoxan-17-oate]
[1]; Rhy 10 μM + Aβ, Aβ alone 897.4±43.4 ms
  mEPSC inter-event interval: 420.6 ± 9.6 ms
[1]; Rhy 10 μM alone, control 312.9±7.8 ms
  mEPSC inter-event interval: 512.2 ± 13.6 ms
[2]; Rhy 30 μM + Aβ, Aβ alone 131.1±3.9%
  mean fEPSP slope, last 10 min after LTP induction: 174.1±9.8%
[2]; Rhy 30 μM alone, control 172.7±7.5%
  mean fEPSP slope, last 10 min after LTP induction: 168.1±6.0%
Tg2576 mutant mice; Tg2576 mice, Rhy oral 20 mg·kg−1·day−1 for 3 weeks, Tg Con 119.0±3.7%
  mean fEPSP slope, last 10 min after LTP induction: 161.9±2.9%
Tg2576 mutant mice; Tg2576 mice, Rhy oral 50 mg·kg−1·day−1 for 3 weeks, Tg Con 119.0±3.7%
  mean fEPSP slope, last 10 min after LTP induction: 159.7±17.9%
Tg2576 mutant mice; WT mice, Rhy oral 20 mg·kg−1·day−1 for 3 weeks, WT Con 170.1±9.7%
  mean fEPSP slope, last 10 min after LTP induction: 167.3±5.2%
APP/PS1 mice
  number of Ki-67+ neural progenitors in dentate gyrus: increased the number of Ki-67+ neural progenitors
NMDA receptors
  inhibition of NMDA current in hippocampal neurons: unable to inhibit NMDA current
NMDA receptor
  binding to NMDA receptor: neither binds to NMDA receptor
